# Test results: patent US20240299353A1, “COMPOSITIONS AND METHODS FOR TREATING […] 5-MEO-DMT” (Alvarius Pharmaceuticals Ltd., priority 2021, published 2024)
# How the values were obtained:
# 5-HT1AR = experiment: Western blot of 5-HT1AR in brain regions, chronic cocaine ± 5-MeO-DMT; format: in vivo, Male Wistar rats
# Excerpt: (§1) Male Wistar rats aged 7 weeks were acclimatized to the facility for 1 week prior to the beginning of the study. […] Animals were euthanized 23- or 119-hours following vehicle or 5-MeO-DMT administration.
# (§2) Following euthanasia brain regions of interest were isolated. Briefly, the olfactory bulbs were removed before the brain was placed in a rat brain matrix (FIG. 2A). Sterile blades were inserted at positions 2 and 3 (FIG. 2B) to extract a coronal slice containing the Bregma+˜0.2-+˜2.2 coordinates (FIG. 2C). From this tissue slice a blunted 12 G needle was used to punch dissect the NAc and dorsal striatum (DS) (FIG. 2D-2E) identified using the rat brain atlas (Panxinos and Watson 2nd edition). The PFC, hippocampus (Hip) and amygdala (Amyg) were then blunt dissected (FIG. 3A-3D). All regions were frozen in liquid nitrogen and stored at −80° C. until processed.
# (§3) These treatment groups were used for the molecular assessment of addiction-linked markers.
# Determination of protein concentration—a bicinchoninic acid assay (BCA, ThermoFisher) was conducted to determine the total protein concentration in tissue lysates following manufacturer's instructions. Briefly, bovine serum albumin (BSA) standards were prepared in a serial dilution (0-2.0 mg protein/ml) and 200 μl working reagent (50:1, reagent A: reagent B) was added to each of the standards and samples in a 96 well plate (Greiner). For tissue lysates a 1:10 dilution was performed with cell lysis buffer to ensure absorbance values lay within the working range established by the standards. All samples and standards were added in duplicate. The plate was covered and incubated for 30 mins at 37° C. before absorbance was read at 562 nm on a plate reader (SpectraMax M3). The absorbance values were used to form a standard curve of known protein concentrations and protein concentration of samples were derived using the equation of the line. All samples were standardized to the lowest protein concentration using distilled H20 (dH2O).
# SDS-PAGE and Western Blotting—Following equalisation of protein concentrations, 6× sample loading buffer (15% SDS, 15% […], 50% glycerol, 0.01% bromophenol blue, […]) was added to each sample using a dilution factor of 1:5 of the total volumes before boiling at 100° C. for 5 mins. Samples were stored at −20° C. until use. One dimensional sodium-dodecyl-sulphate polyacrylamide gel electrophoresis (SDS-PAGE) was used for protein separation based on molecular weight. The percentage of acrylamide in the resolving or stacking gel was determined by the molecular weight of the protein of interest. In this instance all gels consisted of a 5% stacking gel and a 10% resolving gel with the exception of mGluR5, G9a (8%) and H3K9Me2 (12%). 20 μg of protein was loaded and resolved using SDS-PAGE. Gel electrophoresis was conducted at 80V while the protein was in the stacking gel, once it migrated to the resolving gel the voltage was increased to 120V and ran for 90 mins. Samples were transferred to a 0.45 μm polyvinylidene difluoride (PVDF) membrane (Analab) for 1 hour at 100V and blocked in 5% milk blocking solution made in tris-buffered saline containing tween®-20 (TBS-T, Sigma) for 90 mins. Primary antibodies (FIG. 5) were diluted in 5% BSA in TBS-T and incubated with membranes overnight at 4° C. or for 2 hours at room temperature. After incubation with primary antibodies the membranes were washed in TBS-T for 4×10 minutes before incubation with 1:2000 anti-rabbit and 1:2000 anti-mouse Alexa Fluro® conjugated secondary antibodies (Invitrogen) in 2% milk for 1 hour at room temperature. Membranes were washed in TBS-T for 4×10 minutes and in TBS for 1×10-minute wash. Proteins were visualized using Odyssey® infrared imaging system. Protein expression was quantified using Image Studio Lite (Version 5.2) and expression intensities were normalized to a house keeping protein, α-Tubulin or β-actin.
# GR = experiment: Western blot of GR in hippocampus, chronic cocaine ± 5-MeO-DMT; format: in vivo, Male Wistar rats
# Excerpt: as §1, §2, §3
# Determination of protein concentration—a bicinchoninic acid assay (BCA, ThermoFisher) was conducted to determine the total protein concentration in tissue lysates following manufacturer's instructions. […] For tissue lysates a 1:10 dilution was performed with cell lysis buffer to ensure absorbance values lay within the working range established by the standards. […] The plate was covered and incubated for 30 mins at 37° C. before absorbance was read at 562 nm on a plate reader (SpectraMax M3). The absorbance values were used to form a standard curve of known protein concentrations and protein concentration of samples were derived using the equation of the line. […]
# SDS-PAGE and Western Blotting—Following equalisation of protein concentrations, 6× sample loading buffer (15% SDS, 15% […], 50% glycerol, 0.01% bromophenol blue, […]) was added to each sample using a dilution factor of 1:5 of the total volumes before boiling at 100° C. for 5 mins. […] The percentage of acrylamide in the resolving or stacking gel was determined by the molecular weight of the protein of interest. […]
# [1] = hippocampus, 120 h, all treatment groups
SMILES,"5-HT1AR expression (5-HT1AR; hippocampus, 24 h, 10 mg/kg 5-MeO-DMT alone (decrease))","5-HT1AR expression (5-HT1AR; hippocampus, 24 h, 20 mg/kg 5-MeO-DMT alone)","5-HT1AR expression (5-HT1AR; hippocampus, 24 h, cocaine + either 5-MeO-DMT concentration (10 or 20 mg/kg))",5-HT1AR expression (5-HT1AR; [1]),"GR expression (GR; 24 h and 120 h, 5-MeO-DMT)","5-HT1AR expression (5-HT1AR; amygdala, 24 h, cocaine, p=0.0172, no post hoc differences)","5-HT1AR expression (5-HT1AR; amygdala, 120 h, cocaine)","5-HT1AR expression (5-HT1AR; hippocampus, 24 h, repeated cocaine)","GR expression (GR; 24 h, cocaine, p=0.0434, no post hoc differences)","GR expression (GR; 120 h, cocaine effect)"
"COc1ccc2[nH]cc(CCN(C)C)c2c1 [5-MeO-DMT, 5-methoxy-N,N-dimethyltryptamine]",only the 10 mg/kg concentration achieves significance,trend towards decreasing expression levels,restoring receptor expression to levels comparable to control,equal across treatment groups,no 5-Meo-associated regulation of GR,–,–,–,–,–
"COC(=O)[C@H]1[C@@H](OC(=O)c2ccccc2)C[C@@H]2CC[C@H]1N2C.Cl [cocaine, cocaine hydrochloride, reference compound]",–,–,–,equal across treatment groups,–,significant cocaine effect,does not persist to 120 hours,decreased 5-HT1AR expression,significantly affected GR expression,not detectable
